In US6943034B1, “Combinatorial strategies for polymer synthesis” (Affymetrix, Inc., priority 1991, dated 2005):
Where no end group is shown, it is not given here. [ ]: non-standard residue; d: D form.

Tests used:
[1] = tested on: complementary base sequence 5′GCGTCGGC-F (SEQ ID NO:5); assay: Channel Matrix Hybridization Assay; type: binding; conditions: 10 nM target, 15° C., one hour; scanned in 6× SSPE buffer; result in words
Description: A center region of a two by three inch slide was derivatized with bis(2-Hydroxyethyl) aminopropyltriethoxy silane. Six nucleosides were then coupled to the entire reaction region using a synthesis process consisting of deprotection, coupling, and oxidation steps for each monomer applied. These first six nucleosides were coupled in a reaction region defined by a 0.84 inch diameter circular well in an aluminum template clamped to the two by three inch slide.
The seventh and eighth monomers were applied to the substrate by flowing monomer solutions through 100 micron channels in an etched silicon channel block (employed in Example C above). The seventh base was coupled along the long axis (vertical) of the two-inch by three-inch slide, and the eighth base perpendicular to the seventh, along the short axis (horizontal) of the slide. This defined an active matrix region of 1.28 by 1.28 cm having a density of 2,500 reaction regions per square centimeter.
The complete octamer synthesized at the channel intersections formed by the seventh and eighth coupling steps had the following sequence: […]
After completion of the synthesis process, cleavage of exocyclic amines was performed by immersion of the reaction region in concentrated ammonium hydroxide. […] Finally, the reaction region was then scanned using a laser fluorescence detection system while immersed in the buffer.

Herz antibody 3E7 = assay: staining of substrate-bound peptide array with FITC-labelled antibodies, fluorescence intensity; type: binding; conditions: for overall intensity ratios YGGFL:YpGFL:pGGFL:ppGFL: fluorescence intensity of all sites on the slide after staining with FITC-labelled Herz antibody 3E7, ratio relative to ppGFL = 1.0; for fluorescence intensity of peptide sites (FIG. 19): slide stained with FITC-labelled Herz antibody 3E7, result in words
Description: The system was used to synthesize four distinct peptides: YGGFL (SEQ ID NO:1), YpGFL (SEQ ID NO:2), pGGFL (SEQ ID NO:3), and ppGFL (SEQ ID NO:6) (the abbreviations are included in Stryer, Biochemistry, Third Ed. (1988), previously incorporated herein by reference; lower case letters indicate D-optical isomers and upper case letters indicate L-optical isomers). An entire glass substrate was derivatized with TBOC-protected aminopropyltriethoxysilane, deprotected with TFA, coated with FMOC-protected caproic acid (a linker), deprotected with piperidine, and coated with FMOC-protected Glycine-Phenylalanine-Leucine (GFL).
This FMOC-GFL-coated slide was sealed to the channel block, and all 10 grooves were deprotected with piperdine in DMF. After washing the grooves, FMOC Glycine (G) was injected in the odd grooves, and FMOC d-Proline (p) was injected in the even grooves. After a two-hour coupling time, using standard coupling chemistry, all grooves were washed with DMF. The grooves were vacuum dried, the block removed and rotated 90 degrees. After resealing, all grooves were deprotected with piperdine in DMF and washed. FMOC Tyrosine (Y) was injected in the odd grooves, and FMOC p in the even grooves. After coupling the grooves were washed and vacuum dried. Accordingly, 25 regions of each of the compounds YGGFL (SEQ ID NO:1), YpGFL (SEQ ID NO:2), pGGFL (SEQ ID NO:3), and ppGFL (SEQ ID NO:6) were synthesized on the substrate. The substrate was removed and stained with FITC-labelled antibodies (Herz antibody 3E7).

## Substrate—(3′)CGCAGCCG(5′) [full octamer]
[1]
  brightness (fluorescence) indicating hybridization with fluoresceinated target chain (FIG. 21): brightest regions

## YGGFL
Herz antibody 3E7
  overall intensity ratios YGGFL:YpGFL:pGGFL:ppGFL: 1.7
  fluorescence intensity of peptide sites (FIG. 19): most intense

## YpGFL (Y[dP]GFL; also: substrate-bound)
Herz antibody 3E7
  overall intensity ratios YGGFL:YpGFL:pGGFL:ppGFL: 1.5

## pGGFL ([dP]GGFL; also: substrate-bound)
Herz antibody 3E7
  overall intensity ratios YGGFL:YpGFL:pGGFL:ppGFL: 1.1
  fluorescence intensity of peptide sites (FIG. 19): near background levels

## ppGFL ([dP][dP]GFL; also: substrate-bound)
Herz antibody 3E7
  overall intensity ratios YGGFL:YpGFL:pGGFL:ppGFL: 1.0
  fluorescence intensity of peptide sites (FIG. 19): near background levels
